Assay results from patent US10988477B2 (Merck Patent GmbH, priority 2018, dated 2021).

What follows are compounds tested against GCN2 kinase (Homo sapiens, UniProt Q9P2K8) (assay: GCN2 enzyme inhibition assay (Transcreener ADP2 fluorescence polarization)). Conditions: Enzyme activity for compounds of Formula IV; Ki(app), 280 μM ATP, 25° C.
Format: biochemical
Description: Compounds were screened for their ability to inhibit GCN2 kinase activity using a Transcreener® ADP^2 fluorescence polarization assay that detects ADP levels (BellBrook Labs, WI). Assays were carried out in a buffer consisting of 25 mM Tris-HCl (pH 7.5), 50 mM NaCl, 10 mM MgCl2 and 1 mM DTT. Final substrate concentrations were 280 μM ATP and 200 μM peptidic substrate ([…]-OH [(RS)7], Bachem, Switzerland). Assays were carried out at 25° C. in the presence of a (typical) final concentration of 4 nM GCN2 kinase. An assay buffer containing GCN2 kinase and (RS)7 was prepared. 4.7 μL of this stock solution was placed per well of a black, low volume, 384-well microtitre plate (e.g. catalogue number 3676, Corning Inc., NY). To this was added […] of DMSO containing serial dilutions of the test compound (typical final concentrations of test compound were 0 to 8 μM). The plate was incubated for 10 minutes at 25° C. prior to the addition of 4.7 μL of ATP stock buffer to initiate the enzyme reaction. The reaction was allowed to proceed for 1 hour at 25° C., prior to the addition of 10 μL detection buffer (consisting of appropriate concentrations of ADP^2 antibody and ADP Alexa633 tracer in 1× stop and detect buffer as supplied by BellBrook Labs). […] Percentage inhibition of enzyme activity was then calculated at each compound dose. IC50 and Ki(app) (using known assay and kinetic parameters) values were calculated from percentage inhibition data using a non-linear, tight-binding algorithm. All data analysis was undertaken using the Screener® software package (Genedata, Switzerland).

Chain of GCN2 kinase (Q9P2K8 whole entry): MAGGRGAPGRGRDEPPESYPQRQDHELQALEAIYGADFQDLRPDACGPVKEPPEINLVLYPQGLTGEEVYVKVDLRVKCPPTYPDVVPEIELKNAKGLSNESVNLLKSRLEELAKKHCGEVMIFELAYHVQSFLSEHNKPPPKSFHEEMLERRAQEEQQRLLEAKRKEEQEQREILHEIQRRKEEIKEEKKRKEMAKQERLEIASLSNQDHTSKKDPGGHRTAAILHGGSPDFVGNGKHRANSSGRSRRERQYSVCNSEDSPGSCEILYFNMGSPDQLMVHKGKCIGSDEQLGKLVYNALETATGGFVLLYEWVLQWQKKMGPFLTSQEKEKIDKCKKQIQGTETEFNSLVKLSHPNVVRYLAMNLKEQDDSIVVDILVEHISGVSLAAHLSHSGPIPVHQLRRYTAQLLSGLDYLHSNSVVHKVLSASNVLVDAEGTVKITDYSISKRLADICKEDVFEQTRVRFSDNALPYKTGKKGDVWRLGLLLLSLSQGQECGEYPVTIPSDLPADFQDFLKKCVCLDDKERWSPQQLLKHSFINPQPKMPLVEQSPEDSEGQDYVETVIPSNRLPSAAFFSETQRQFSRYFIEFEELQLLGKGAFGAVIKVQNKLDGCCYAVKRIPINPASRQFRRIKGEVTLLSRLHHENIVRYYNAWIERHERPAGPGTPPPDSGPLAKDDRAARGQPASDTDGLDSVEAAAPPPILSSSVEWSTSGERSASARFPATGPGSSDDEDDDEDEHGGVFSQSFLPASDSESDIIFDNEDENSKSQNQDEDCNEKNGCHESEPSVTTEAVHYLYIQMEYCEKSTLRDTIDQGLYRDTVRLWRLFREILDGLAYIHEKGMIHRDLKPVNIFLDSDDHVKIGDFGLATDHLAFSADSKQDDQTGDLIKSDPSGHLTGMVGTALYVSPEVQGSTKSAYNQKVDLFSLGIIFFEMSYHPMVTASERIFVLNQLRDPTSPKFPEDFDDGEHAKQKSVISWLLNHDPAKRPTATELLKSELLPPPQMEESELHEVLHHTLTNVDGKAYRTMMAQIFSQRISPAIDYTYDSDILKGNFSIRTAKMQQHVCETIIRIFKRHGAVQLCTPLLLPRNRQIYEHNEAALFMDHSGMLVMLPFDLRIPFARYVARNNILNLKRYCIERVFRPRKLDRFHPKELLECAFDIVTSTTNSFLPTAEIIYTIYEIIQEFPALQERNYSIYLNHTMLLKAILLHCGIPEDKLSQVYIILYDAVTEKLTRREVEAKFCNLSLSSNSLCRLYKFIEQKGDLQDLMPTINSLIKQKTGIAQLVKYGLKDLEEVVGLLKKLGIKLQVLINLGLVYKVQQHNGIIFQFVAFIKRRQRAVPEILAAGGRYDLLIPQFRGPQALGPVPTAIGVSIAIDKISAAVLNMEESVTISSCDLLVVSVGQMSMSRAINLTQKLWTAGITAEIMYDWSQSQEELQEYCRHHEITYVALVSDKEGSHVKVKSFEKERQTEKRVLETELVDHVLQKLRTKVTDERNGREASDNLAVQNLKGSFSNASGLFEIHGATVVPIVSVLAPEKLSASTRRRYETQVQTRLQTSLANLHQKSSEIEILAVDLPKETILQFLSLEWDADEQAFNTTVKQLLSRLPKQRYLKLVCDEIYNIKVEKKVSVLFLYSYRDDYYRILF

SMILES	Ki
CC1c2ccsc2CCN1c1ccnc(-c2cnc3cnc(C(F)(F)F)cn23)n1 (centres unmarked) [IV-730]	> 1 µM
FC(F)(F)c1cn2c(-c3nccc(N4CCCC(c5ncccn5)C4)n3)cnc2cn1 (centres unmarked) [IV-719]	0.1 to 1 µM
Cc1csc2c1CN(c1ccnc(-c3cnc4cnc(C(F)(F)F)cn34)n1)CC2 [IV-714]	0.1 to 1 µM
FC(F)(F)c1cn2c(-c3nccc(N4CCCC5(CCOCC5)C4)n3)cnc2cn1 [IV-505, 2-(2-(6-(Trifluoromethyl)imidazo[1,2-a]pyrazin-3-yl)pyrimidin-4-yl)-9-oxa-2-azaspiro[5.5]undecane]	0.1 to 1 µM
FC(F)(F)c1cn2c(-c3nccc(N4CCCC(c5ccno5)C4)n3)cnc2cn1 (centres unmarked) [IV-317, 5-(1-(2-(6-(Trifluoromethyl)imidazo[1,2-a]pyrazin-3-yl)pyrimidin-4-yl)piperidin-3-yl)isoxazole]	0.01 to 0.1 µM
FC(F)(F)c1cn2c(-c3nccc(N4CCC(c5c[nH]cn5)C4)n3)cnc2cn1 (centres unmarked) [IV-456, 3-(4-(3-(1H-Imidazol-4-yl)pyrrolidin-1-yl)pyrimidin-2-yl)-6-(trifluoromethyl)imidazo[1,2-a]pyrazine]	0.1 to 1 µM
OCC1CCN(c2ccnc(-c3cnc4cnc(C(F)(F)F)cn34)n2)C1 (centres unmarked) [IV-434, (1-(2-(6-(Trifluoromethyl)imidazo[1,2-a]pyrazin-3-yl)pyrimidin-4-yl)pyrrolidin-3-yl)methanol]	0.1 to 1 µM
FC(F)(F)c1cn2c(-c3nccc(N4CCCC(c5n[nH]c(C6CCCCC6)n5)C4)n3)cnc2cn1 (centres unmarked) [IV-659, 3-(4-(3-(5-Cyclohexyl-1H-1,2,4-triazol-3-yl)piperidin-1-yl)pyrimidin-2-yl)-6-(trifluoromethyl)imidazo[1,2-a]pyrazine]	0.1 to 1 µM
C[S+]([O-])CC1CCN(c2ccnc(-c3cnc4cnc(C(F)(F)F)cn34)n2)C1 (centres unmarked) [IV-603, 3-(4-(3-((Methylsulfinyl)methyl)pyrrolidin-1-yl)pyrimidin-2-yl)-6-(trifluoromethyl)imidazo[1,2-a]pyrazine]	0.1 to 1 µM
C[C@H]1[C@H](c2cn[nH]c2)OCCN1c1ccnc(-c2cnc3cnc(Br)cn23)n1 (racemic) [IV-312, Trans-4-(2-(6-Bromoimidazo[1,2-a]pyrazin-3-yl)pyrimidin-4-yl)-3-methyl-2-(1H-pyrazol-4-yl)morpholine]	0.01 to 0.1 µM
NC(=O)c1cn2c(-c3nccc(N4CCN(C(=O)C5CC5)CC4)n3)cnc2cn1 [IV-277, 3-(4-(4-(Cyclopropanecarbonyl)piperazin-1-yl)pyrimidin-2-yl)imidazo[1,2-a]pyrazine-6-carboxamide]	0.01 to 0.1 µM
FC(F)(F)c1cn2c(-c3nccc(N4CCCC(C5CCOC5)C4)n3)cnc2cn1 (single isomer, unassigned) [IV-544, 3-(4-(3-(Tetrahydrofuran-3-yl)piperidin-1-yl)pyrimidin-2-yl)-6-(trifluoromethyl)imidazo[1,2-a]pyrazine]	0.1 to 1 µM
FC(F)(F)c1cn2c(-c3nccc(N4CCC(c5ccccn5)C4)n3)cnc2cn1 (centres unmarked) [IV-552, 3-(4-(3-(Pyridin-2-yl)pyrrolidin-1-yl)pyrimidin-2-yl)-6-(trifluoromethyl)imidazo[1,2-a]pyrazine]	0.1 to 1 µM
FC(F)(F)c1cn2c(-c3nccc(N4CCCC(c5nnc[nH]5)C4)n3)cnc2cn1 (centres unmarked) [IV-326, 3-(4-(3-(4H-1,2,4-Triazol-3-yl)piperidin-1-yl)pyrimidin-2-yl)-6-(trifluoromethyl)imidazo[1,2-a]pyrazine]	0.1 to 1 µM
CC1CN(c2nc(-c3cnc4cnc(C(F)(F)F)cn34)ncc2F)CC(c2cn[nH]c2)O1 (single isomer, unassigned) [IV-334, 4-(5-Fluoro-2-(6-(trifluoromethyl)imidazo[1,2-a]pyrazin-3-yl)pyrimidin-4-yl)-2-methyl-6-(1H-pyrazol-4-yl)morpholine]	0.1 to 1 µM
CC1C(c2cn[nH]c2)OCCN1c1ccnc(-c2cnc3cnc(C#N)cn23)n1 (single isomer, unassigned) [IV-291, 3-(4-(3-Methyl-2-(1H-pyrazol-4-yl)morpholino)pyrimidin-2-yl)imidazo[1,2-a]pyrazine-6-carbonitrile]	0.1 to 1 µM
C[C@H]1NCCN(c2ccnc(-c3cnc4cnc(Br)cn34)n2)[C@H]1c1cn[nH]c1 (racemic) [IV-342, Cis-6-Bromo-3-(4-(3-methyl-2-(1H-pyrazol-4-yl)piperazin-1-yl)pyrimidin-2-yl)imidazo[1,2-a]pyrazine]	0.1 to 1 µM
CC1COC(CO)CN1c1ccnc(-c2cnc3cnc(C(F)(F)F)cn23)n1 (centres unmarked) [IV-613, (5-Methyl-4-(2-(6-(trifluoromethyl)imidazo[1,2-a]pyrazin-3-yl)pyrimidin-4-yl)morpholin-2-yl)methanol]	0.1 to 1 µM

Same assay, conditions: compounds of Formula II; 280 μM ATP, 4 nM GCN2 kinase

SMILES	Ki	IC50
CC1CC(N=S(C)(C)=O)C(C)N(c2cc(-c3cnc4ccc(C(F)F)nn34)ncn2)C1 (single isomer, unassigned) [II-630, ((1-(6-(6-(Difluoromethyl)imidazo[1,2-b]pyridazin-3-yl)pyrimidin-4-yl)-2,5-dimethylpiperidin-3-yl)imino)dimethyl-λ^6-sulfanone]	0.01 to 1 µM	–
Cc1nn(C)cc1C1CN(c2cc(-c3cnc4ccc(C(F)(F)F)nn34)ncn2)C[C@@H](C)O1 (stereo in doubt) [II-760, (2R,6R)-2-(1,3-dimethyl-1H-pyrazol-4-yl)-6-methyl-4-(6-(6-(trifluoromethyl)imidazo[1,2-b]pyridazin-3-yl)pyrimidin-4-yl)morpholine]	–	0.01 to 1 µM
CC1CC(C(N)=O)C(C)N(c2cc(-c3cnc4ccc(C(F)(F)F)nn34)ncn2)C1 (single isomer, unassigned) [II-718, 2,5-Dimethyl-1-[6-[6-(trifluoromethyl)imidazo[1,2-b]pyridazin-3-yl]pyrimidin-4-yl]piperidine-3-carboxamide]	0.01 to 1 µM	–
Cc1nn(C)cc1C1CN(c2cc(-c3cnc4ccc(C(F)(F)F)nn34)ncn2)C[C@@H](C)O1 (stereo in doubt) [II-761, (2S,6R)-2-(1,3-dimethyl-1H-pyrazol-4-yl)-6-methyl-4-(6-(6-(trifluoromethyl)imidazo[1,2-b]pyridazin-3-yl)pyrimidin-4-yl)morpholine]	–	> 1 µM
CC1C(CN=S(C)(C)=O)CCCN1c1cc(-c2cnc3ccc(C(F)F)nn23)ncn1 (centres unmarked) [II-583, (((1-(6-(6-(Difluoromethyl)imidazo[1,2-b]pyridazin-3-yl)pyrimidin-4-yl)-2-methylpiperidin-3-yl)methyl)imino)dimethyl-λ^6-sulfanone]	> 1 µM	–
N#CC1CCCN(c2cc(-c3cnc4ccc(C(F)F)nn34)ncn2)C1 (centres unmarked) [II-532, 1-(6-(6-(Difluoromethyl)imidazo[1,2-b]pyridazin-3-yl)pyrimidin-4-yl)piperidine-3-carbonitrile]	0.01 to 1 µM	–

Same assay, conditions: compounds of Formula IV; 280 μM ATP, 4 nM GCN2 kinase

SMILES	IC50
C[C@H]1[C@@H](c2cn[nH]c2)N(C(=O)C2CC2)[C@@H](C)CN1c1ccnc(-c2cnc3cnc(C(F)(F)F)cn23)n1 [IV-778, cyclopropyl((2R,3S,6S)-3,6-dimethyl-2-(1H-pyrazol-4-yl)-4-(2-(6-(trifluoromethyl)imidazo[1,2-a]pyrazin-3-yl)pyrimidin-4-yl)piperazin-1-yl)methanone]	0.01 to 1 µM
Cc1n[nH]cc1[C@H]1CN(c2ccnc(-c3cnc4cnc(C(F)(F)F)cn34)n2)C[C@@H](C)O1 (stereo in doubt) [IV-762, (2R,6S)-2-methyl-6-(3-methyl-1H-pyrazol-4-yl)-4-(2-(6-(trifluoromethyl)imidazo[1,2-a]pyrazin-3-yl)pyrimidin-4-yl)morpholine]	0.01 to 1 µM
